Laboratory results as given in ChEMBL document CHEMBL1131843, “Synthesis and biological evaluation of novel 1beta-methylcarbapenems having a new moiety at C-2” (Bioorg Med Chem Lett, 1999).
Converted amounts (≈) assume the structure as drawn.

Assays:
Staphylococcus aureus = experiment: In vitro antibacterial activity against Staphylococcus aureus SG 511; type: functional
Pseudomonas aeruginosa [1] = experiment: In vitro antibacterial activity against Pseudomonas aeruginosa 1771M; type: functional
Escherichia coli [2] = experiment: In vitro antibacterial activity against Escherichia coli 1507E; type: functional
Enterococcus faecium = experiment: In vitro antibacterial activity against Streptococcus faecium MD 8b; type: functional
Salmonella typhimurium = experiment: In vitro antibacterial activity against Salmonella Typhimurium; type: functional, Salmonella enterica subsp. enterica serovar Typhimurium
Escherichia coli [3] = experiment: In vitro antibacterial activity against Escherichia coli 078; type: functional
Klebsiella aerogenes = experiment: In vitro antibacterial activity against Klebsiella aerogenes 1522E; type: functional
Streptococcus pyogenes = experiment: In vitro antibacterial activity against Streptococcus pyogenes 77A; type: functional
Pseudomonas aeruginosa [4] = experiment: In vitro antibacterial activity against Pseudomonas aeruginosa 1592E; type: functional
Enterobacter cloacae = experiment: In vitro antibacterial activity against Enterobacter cloacae 1321E; type: functional
[5] = molecular target: T1, Dipeptidase 1 (Sus scrofa) (UniProt P22412); experiment: Relative hydrolysis to meropenem by partially purified porcine renal Dehydropeptidase-1 was reported.; set-up: scale not given: the % may be the effect or the level left
T1 sequence (whole entry): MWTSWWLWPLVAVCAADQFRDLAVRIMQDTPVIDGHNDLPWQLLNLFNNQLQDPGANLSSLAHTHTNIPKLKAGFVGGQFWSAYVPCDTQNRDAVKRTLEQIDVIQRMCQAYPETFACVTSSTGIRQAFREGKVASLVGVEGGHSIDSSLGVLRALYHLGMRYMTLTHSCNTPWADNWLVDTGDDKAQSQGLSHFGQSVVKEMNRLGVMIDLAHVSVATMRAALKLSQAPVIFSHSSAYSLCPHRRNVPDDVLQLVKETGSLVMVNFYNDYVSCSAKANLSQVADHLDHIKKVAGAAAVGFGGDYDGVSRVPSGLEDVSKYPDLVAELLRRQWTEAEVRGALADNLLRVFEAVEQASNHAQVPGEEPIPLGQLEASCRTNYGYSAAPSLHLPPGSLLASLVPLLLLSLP

[6] = Maximum time was determined in mice at a single subcutaneous administration of 40 mg/kg (n=4); type: ADME, organism-based; set-up: dose 40 mg/kg, route subcutaneous; settings: mouse, in vivo, sc
[7] = Maximum plasma concentration was determined in mice at a single subcutaneous administration of 40 mg/kg (n=4); type: ADME, organism-based; set-up: dose 40 mg/kg, route subcutaneous; settings: mouse, sc
[8] = Half life was determined in mice at a single subcutaneous administration of 40 mg/kg (n=4); type: ADME, organism-based; set-up: dose 40 mg/kg, route subcutaneous; settings: mouse, in vivo, sc
Mus musculus [9] = experiment: In vivo therapeutic efficacy was determined against Escherichia coli 078 by a single sc administration in mice; type: functional; settings: read-out: PD50
Mus musculus [10] = experiment: In vivo therapeutic efficacy was determined against Staphylococcus aureus Y-80-1953 by a single sc administration in mice; type: functional; settings: read-out: PD50
[11] = Area under curve (AUC) was determined in mice at a single subcutaneous administration of 40 mg/kg (n=4); type: ADME, organism-based; set-up: dose 40 mg/kg, route subcutaneous; settings: mouse, in vivo, sc
Mus musculus [12] = experiment: In vivo therapeutic efficacy was determined against Pseudomonas aeruginosa 1771M by a single sc administration in mice; type: functional; settings: read-out: PD50
Mus musculus [13] = experiment: In vivo therapeutic efficacy was determined against Streptococcus pyogenes 77A by a single sc administration in mice; type: functional; settings: read-out: PD50
[14] = Staphylococcus aureus, read-out: MIC
[15] = Pseudomonas aeruginosa, read-out: MIC
[16] = Enterococcus faecium, read-out: MIC
[17] = Salmonella enterica, read-out: MIC
[18] = Escherichia coli, read-out: MIC
[19] = Klebsiella aerogenes, read-out: MIC
[20] = Streptococcus pyogenes, read-out: MIC
[21] = Enterobacter cloacae, read-out: MIC

MIC (Staphylococcus aureus; [14]) [µg/mL] | MIC (Pseudomonas aeruginosa [1]; [15]) [µg/mL] | MIC (Escherichia coli [2]) [µg/mL] | MIC (Enterococcus faecium; [16]) [µg/mL] | MIC (Salmonella typhimurium; [17]) [µg/mL] | MIC (Escherichia coli [3]; [18]) [µg/mL] | MIC (Klebsiella aerogenes; [19]) [µg/mL] | MIC (Streptococcus pyogenes; [20]) [µg/mL] | MIC (Pseudomonas aeruginosa [4]; [15]) [µg/mL] | MIC (Enterobacter cloacae; [21]) [µg/mL] | SMILES | Stability [5] [%] | also measured
0.195 (≈ 0.442 µM) | 0.391 (≈ 0.886 µM) | 0.195 (≈ 0.442 µM) | 12.5 (≈ 28.3 µM) | 0.391 (≈ 0.886 µM) | 0.098 (≈ 0.222 µM) | 0.195 (≈ 0.442 µM) | 0.013 (≈ 0.0294 µM) | 100 (≈ 226 µM) | 0.195 (≈ 0.442 µM) | C[C@@H](O)[C@H]1C(=O)N2C(C(=O)O)=C(S[C@H]3CN[C@H](C(=O)N4C[C@@H](O)[C@H](O)C4)C3)[C@H](C)[C@H]12 | – | –
0.195 (≈ 0.37 µM) | 0.391 (≈ 0.741 µM) | 0.025 (≈ 0.0474 µM) | 6.25 (≈ 11.8 µM) | 0.049 (≈ 0.0929 µM) | 0.025 (≈ 0.0474 µM) | 0.049 (≈ 0.0929 µM) | 0.025 (≈ 0.0474 µM) | 0.781 (≈ 1.48 µM) | 0.025 (≈ 0.0474 µM) | C[C@@H](O)[C@H]1C(=O)N2C(C(=O)O)=C(S[C@@H]3CN[C@H](C(=O)N4C[C@H](OC(N)=O)[C@@H](OC(N)=O)C4)C3)[C@H](C)[C@H]12 | 53 | –
0.195 (≈ 0.371 µM) | 0.098 (≈ 0.186 µM) | 0.025 (≈ 0.0476 µM) | 6.25 (≈ 11.9 µM) | 0.049 (≈ 0.0932 µM) | 0.013 (≈ 0.0247 µM) | 0.049 (≈ 0.0932 µM) | 0.007 (≈ 0.0133 µM) | 0.098 (≈ 0.186 µM) | 0.013 (≈ 0.0247 µM) | CC(=O)O[C@@H]1CN(C(=O)[C@@H]2C[C@H](SC3=C(C(=O)O)N4C(=O)[C@H]([C@@H](C)O)[C@H]4[C@H]3C)CN2)C[C@H]1OC(C)=O | 50 | –
0.195 (≈ 0.442 µM) | 0.781 (≈ 1.77 µM) | 0.098 (≈ 0.222 µM) | 25 (≈ 56.6 µM) | 0.195 (≈ 0.442 µM) | 0.098 (≈ 0.222 µM) | 0.195 (≈ 0.442 µM) | 0.025 (≈ 0.0566 µM) | 100 (≈ 226 µM) | 0.195 (≈ 0.442 µM) | C[C@@H](O)[C@H]1C(=O)N2C(C(=O)O)=C(S[C@H]3CN[C@H](C(=O)N4C[C@H](O)[C@@H](O)C4)C3)[C@H](C)[C@H]12 | – | –
– | – | – | – | – | – | – | – | – | – | CC(=O)O[C@H]1CN(C(=O)[C@@H]2C[C@H](SC3=C(C(=O)O)N4C(=O)[C@H]([C@@H](C)O)[C@H]4[C@H]3C)CN2)C[C@@H]1OC(C)=O (stereo in doubt; 1a) [listing 2 of 2 here] | 63 | –
– | – | – | – | – | – | – | – | – | – | CC(=O)O[C@H]1CN(C(=O)[C@@H]2C[C@H](SC3=C(C(=O)O)N4C(=O)[C@H]([C@@H](C)O)[C@H]4[C@H]3C)CN2)C[C@@H]1OC(C)=O (stereo in doubt; 1f) [listing 1 of 2 here] | – | MIC (Staphylococcus aureus): 0.195 µg/mL (≈ 0.371 µM); MIC (Pseudomonas aeruginosa [1]): 0.195 µg/mL (≈ 0.371 µM); MIC (Enterococcus faecium): 6.25 µg/mL (≈ 11.9 µM); MIC (Salmonella typhimurium): 0.049 µg/mL (≈ 0.0932 µM); MIC (Escherichia coli [3]): 0.025 µg/mL (≈ 0.0476 µM); MIC (Klebsiella aerogenes): 0.049 µg/mL (≈ 0.0932 µM); MIC (Streptococcus pyogenes): 0.007 µg/mL (≈ 0.0133 µM); MIC (Pseudomonas aeruginosa [4]): 1.563 µg/mL (≈ 2.97 µM); MIC (Enterobacter cloacae): 0.013 µg/mL (≈ 0.0247 µM)
– | – | – | – | – | – | – | – | – | – | CC(=O)O[C@H]1CN(C(=O)[C@@H]2C[C@H](SC3=C(C(=O)O)N4C(=O)[C@H]([C@@H](C)O)[C@H]4[C@H]3C)CN2)C[C@@H]1OC(C)=O (stereo in doubt; 1f) [listing 2 of 2 here] | 66 | –

SMILES | MIC (Staphylococcus aureus; [14]) [µg/mL] | MIC (Pseudomonas aeruginosa [1]; [15]) [µg/mL] | MIC (Escherichia coli [2]) [µg/mL] | MIC (Enterococcus faecium; [16]) [µg/mL] | MIC (Salmonella typhimurium; [17]) [µg/mL] | MIC (Escherichia coli [3]; [18]) [µg/mL] | MIC (Klebsiella aerogenes; [19]) [µg/mL] | MIC (Streptococcus pyogenes; [20]) [µg/mL] | MIC (Pseudomonas aeruginosa [4]; [15]) [µg/mL] | MIC (Enterobacter cloacae; [21]) [µg/mL] | Stability [5] [%] | also measured
CC(=O)O[C@H]1CN(C(=O)[C@@H]2C[C@H](SC3=C(C(=O)O)N4C(=O)[C@H]([C@@H](C)O)[C@H]4[C@H]3C)CN2)C[C@@H]1OC(C)=O (stereo in doubt; 1a) [listing 1 of 2 here] | 0.098 (≈ 0.186 µM) | 0.098 (≈ 0.186 µM) | 0.025 (≈ 0.0476 µM) | 6.25 (≈ 11.9 µM) | 0.049 (≈ 0.0932 µM) | 0.013 (≈ 0.0247 µM) | 0.049 (≈ 0.0932 µM) | 0.007 (≈ 0.0133 µM) | – | 0.013 (≈ 0.0247 µM) | – | Tmax [6]: 10.2 min; Cmax [7]: 16600 ng/mL; half-life [8]: 15 min; ED50 (Mus musculus [9]): 0.94 mg/kg; ED50 (Mus musculus [10]): 2.18 mg/kg; AUC [11]: 6830 ng·h/mL; ED50 (Mus musculus [12]): 3.93 mg/kg; MIC (Pseudomonas aeruginosa [4]): 0.195 µg/mL (≈ 0.371 µM); ED50 (Mus musculus [13]): 4.79 mg/kg
C[C@@H](O)[C@H]1C(=O)N2C(C(=O)O)=C(SCCNC=N)C[C@H]12 [IMIPENEM ANHYDROUS] | 0.013 (≈ 0.0434 µM) | 0.195 (≈ 0.651 µM) | 0.195 (≈ 0.651 µM) | 1.56 (≈ 5.22 µM) | 0.781 (≈ 2.61 µM) | 0.098 (≈ 0.327 µM) | 0.391 (≈ 1.31 µM) | 0.004 (≈ 0.0134 µM) | 0.781 (≈ 2.61 µM) | 0.195 (≈ 0.651 µM) | 19 | –
C[C@@H](O)[C@H]1C(=O)N2C(C(=O)O)=C(S[C@@H]3CN[C@H](C(=O)N(C)C)C3)[C@H](C)[C@H]12 [MEROPENEM] | 0.098 (≈ 0.256 µM) | 0.049 (≈ 0.128 µM) | 0.025 (≈ 0.0652 µM) | 12.5 (≈ 32.6 µM) | 0.025 (≈ 0.0652 µM) | 0.013 (≈ 0.0339 µM) | 0.049 (≈ 0.128 µM) | 0.002 (≈ 0.00522 µM) | 0.195 (≈ 0.509 µM) | 0.025 (≈ 0.0652 µM) | 100 | Tmax [6]: 10.2 min; Cmax [7]: 15600 ng/mL; half-life [8]: 16.2 min; ED50 (Mus musculus [9]): 0.65 mg/kg; ED50 (Mus musculus [10]): 11.1 mg/kg; AUC [11]: 6860 ng·h/mL; ED50 (Mus musculus [12]): 4.26 mg/kg; ED50 (Mus musculus [13]): 4.55 mg/kg
